This is an account of results in patent US20210251883A1, “METHOD FOR PREPARING ENZYME-TREATED ZIZANIA LATIFOLIA TURCZ. EXTRACT HAVING INCREASED TRICIN CONTENT, AND COMPOSITION FOR WHITENING, WRINKLE REDUCTION, ANTI-INFLAMMATION, ANTI-ALLERGY AND MOISTURIZATION, PREPARED THEREBY” (BTC CORPORATION, priority 2018, published 2021).

One test has as its system RAW264.7 cells. Description: NO assay in lipopolysaccharide-induced macrophage cell line RAW264.7. It counts as cell-based. The note with it: concentration series of single substance; versus LPS. Here is the method: The production of NO was confirmed through the NO assay, and the specific process was as follows: The macrophage cell line RAW264.7 was distributed from the Korea Cell Line Bank (KCLB, Seoul, Korea), and using DMEM medium (Welgene, Gyeongsan, Korea) to which 10% FBS and 1% antibiotics (penicillin/streptomycin) were added, the cells were subcultured 2 to 3 times in an incubator at 37° C. in the presence of 5% CO2 and used.
RAW264.7 cells were dispensed into a 96-well plate at […] and pre-cultured in a 5% CO2 incubator for 20 to 24 hours, and each extract sample was treated and cultured for 24 hours. […] After the reaction was completed, optical density (O.D) was measured with an ELISA reader at a wavelength of 540 nm. At this time, the measured O.D was expressed as a percentage (%) compared with the O.D value in the cells to which lipopolysaccharide was added.
Second, NO assay was performed to measure the anti-inflammatory effect of the Zizania latifolia Turcz. extract and tricin using RAW264.7. […] After the reaction was completed, optical density (O.D) was measured with an ELISA reader at a wavelength of 540 nm. At this time, the measured O.D was expressed as a percentage (%) compared with the O.D value in the cells to which lipopolysaccharide was added. […]

The next test deals with B16-F0 cells. In words: inhibition of melanin production in melanin cell line B16-F0 (α-MSH/IBMX stimulated). The test is classed as cell-based, mouse. The note with it: concentration series of single substance. The method, then: The whitening effect of the Zizania latifolia Turcz. extract prepared in the above Preliminary Experiments 2 to 4 was confirmed. First, mouse-derived melanin cell line B16-F0 cells were distributed from the American Type Culture Collection (ATCC, USA), and using DMEM medium (ATCC, ATCC 30-2002, USA) to which 10% FBS and 1% antibiotics (penicillin/streptomycin) were added, the cells were subcultured 2 to 3 times in an incubator at 37° C. in the presence of 5% CO2 and used.
Second, the ability of the Zizania latifolia Turcz. extract and tricin to inhibit melanin production in the mouse-derived melanin cell line B16-F0 was measured. B16-F0 cells were dispensed into a 6-well plate at 5×10^5 cells/well and pre-cultured in a 5% CO2 incubator for 20 to 24 hours, and then each extract sample was treated and cultured for 48 hours. […]
The melanoma cells adhered to the surface of the 6-well plate were removed from the cultured cells, dispensed into a 1.5 mL tube, and centrifuged at 13,000 rpm for 10 minutes using a centrifuge maintained at 4° C. […] After reacting for 1 hour in an oven at 60° C., 100 μL was dispensed to each well in a 96-well plate and O.D was measured with an ELISA reader (405 nm). […]

For test [1], the system named is CCD-986sk fibroblast cells, human dermal fibroblasts (HDF). Description: procollagen type I C-peptide EIA, collagen synthesis in fibroblasts. The test is classed as cell-based. The note with it: concentration series of single substance. Here is the method: The anti-wrinkle effect of the Zizania latifolia Turcz. extract prepared in Preliminary Experiments 2 to 4 was confirmed. First, human-derived CCD-986sk fibroblast cells were distributed from Korea Culture Tissue Collection (KCTC, Korea), and human dermal fibroblasts (HDF) were distributed from Seorin Bio. In addition, CCD-986sk fibroblasts were subcultured 2 to 3 times in an incubator at 37° C. in the presence of 5% CO2 using IMDM medium (ATCC, ATCC 30-2005, USA) supplemented with 10% FBS and 1% antibiotics (penicillin/streptomycin) and used. […]
Second, procollagen and MMP families (MMP-1, 2, 3, 9, 13) are factors that are discharged to the outside of the cell culture solution, and the cell culture solution reacted with the sample was collected and used. […] (standard sample), procollagen type I C-peptide EIA kit manufactured by Takara was used, the quantification curve was measured using PIP to calculate the amount of collagen synthesis for each sample. In addition, by measuring the inhibitory ability of metalloproteinase-1 (MMP-1), MMP-2, MMP-3, MMP-9, and […], which are factors affecting wrinkles, Zizania latifolia Turcz. enzyme treatment (standard sample) and tricin were evaluated for wrinkle improvement effect. The inhibitory ability of MMP-1, 2, 3, 9, 13 was measured using a product manufactured by Abcam.

A further test has as its system RBL-2H3 cells. In words: β-hexosaminidase release in IgE/antigen-stimulated RBL-2H3 cells. The test is classed as cell-based, rat. The note with it: concentration series of single substance; versus DNP-HSA. Here is the method:
The anti-allergic efficacy of the Zizania latifolia Turcz. extract prepared in the above Preliminary Experiments 2 to 4 was confirmed. First, RBL-2H3 cells, a rat basophilic leukemia cell line, were purchased from Korea Cell Line Bank (KCLB, Seoul, Korea). RBL-2H3 cells were cultured in MEM (Gibco BRL, NY, USA) medium containing 10% FBS and 1% penicillin/streptomycin in an incubator at 37° C. and 5% CO2.
Second, the inhibitory effect of the extract on the release of β-hexosaminidase was confirmed in RBL-2H3 cells. RBL-2H3 cells were dispensed into a 24-well plate at 2×10^5 cells per well and stimulated with anti-DNP IgE (450 ng/mL) overnight at 37° C. […] Then, the reaction was stopped by immersing in an ice water bath for 10 minutes. 25 μL of the supernatant was transferred to a 96-well plate and 25 μL of 0.1 M citrate buffer (pH 4.5) in which the substrate (1 mM p-nitrophenyl-nacetyl-β-D-glucosaminide) is dissolved, was added and reacted at 37° C. for 1 hour. Thereafter, 200 μL of a stop solution (0.1 M Na2CO3/NaHCO3, pH 10.0) was added to stop the reaction, and the absorbance was measured at 405 nm using a microplate reader.

The test system of a further test is SKH-1 hairless mouse. Description: UVB-irradiated wrinkle-induced SKH-1 hairless mouse animal experiment. The test is classed as in vivo. From the text: The anti-wrinkle improvement and moisturizing effects were confirmed through animal experiments for the enzyme-treated extract of Zizania latifolia Turcz. prepared in the above Example 1. For the experiment, biochemical analysis equipment (Roche Ltd, Basel, Switzerland), glass teflon homogenizer (Chang shin scientific Co., Korea), microplate reader (Bio-TEK, USA), protein quantification equipment (Chemi-Doc; BIORAD, USA), a centrifuge (Hanil FLETA5, Korea), a water bath (Thermo minder taitec, Japan), and a deep freezer (Sanyo, Japan) were used. In addition, glass Teflon homogenizer (Daihan Scientific Group, Korea), UV-spectrophotometer (Shimadzu UV-1201, Japan), high-speed centrifuge (Hanil HMR-1610V, Korea), medical freezer (Sanyo, Japan)), a microplate reader (Bio-TEK), and protein quantification equipment (Chemi-Doc; BIORAD) were used. […]
First, the body weight of each animal was measured to observe the change in body weight. […]

`COc1cc(-c2cc(=O)c3c(O)cc(O)cc3o2)cc(OC)c1O` [tricin, Tricin]: the “NO generation according to the concentration (FIG. 7)” value with RAW264.7 cells is on record as “decreased in a concentration-dependent manner”. Also, the “melanin generation according to the concentration (FIG. 9)” value in the test with B16-F0 cells is “decreased in a concentration-dependent manner”. In addition, the “collagen generation according to the concentration (FIG. 11)” value in test [1] is “increased in a concentration-dependent manner”. In addition, the “β-hexosaminidase release rate according to the concentration (FIG. 13)” value with RBL-2H3 cells is “decreased in a concentration-dependent manner”. The “moisture of the skin surface” value with SKH-1 hairless mouse (T group, 0.3 mg/kg oral, 14 weeks, UVB, FIG. 16) is “maintained”. Further, the “SILFLO microscopic observation of wrinkles versus group C” value in the test on SKH-1 hairless mouse (group T, tricin 2 mg/kg as printed, until the 8th week of UVB irradiation) is “wrinkles were relatively less formed compared to group C”.
